Assay results: patent US8314130B2, “Compounds inclunding substituted pyridines for inflammation and immune-related uses” (Synta Pharmaceuticals Corp., priority 2008, dated 2012)

What was measured:
IL-2 = test: Inhibition of IL-2 production in PHA-activated Jurkat cells (1% FBS), ELISA; assay type: cell-based; conditions: Homo sapiens, activity class, read-out: IL-2 current inhibition Jurkat/PHA/1% FBS IC50
Protocol: Jurkat cells were placed in a 96 well plate (0.5 million cells per well in 1% FBS medium), and then a test compound of this invention was added at different concentrations. After 10 minutes, the cells were activated with PHA (final concentration 2.5 μg/mL) and incubated for 20 hours at 37° C. under 5% CO2. The final volume was 200 Following incubation, the cells were centrifuged, and the supernatants collected and stored at −70° C. prior to assaying for IL-2 production. A commercial ELISA kit (IL-2 Eli-pair, Diaclone Research, Besancon, France) was used to detect production of IL-2, from which dose response curves were obtained. The IC50 value was calculated as the concentration at which 50% of maximum IL-2 production after stimulation was inhibited versus a non-stimulation control.

CRACM1/STIM1 = biological target: T1, CRACM1/STIM1 (Homo sapiens, UniProt Q96D31); test: ICRAC current inhibition in CRACM1/STIM1-CHOK1 cells (patch clamp); assay type: cell-based; conditions: activity class; for inhibition at 0.5 µM: 500 nM
T1 construct: Full length human Stim1, CracM1, CracM2 and CracM3 cDNA
T1 sequence (Q96D31 whole entry): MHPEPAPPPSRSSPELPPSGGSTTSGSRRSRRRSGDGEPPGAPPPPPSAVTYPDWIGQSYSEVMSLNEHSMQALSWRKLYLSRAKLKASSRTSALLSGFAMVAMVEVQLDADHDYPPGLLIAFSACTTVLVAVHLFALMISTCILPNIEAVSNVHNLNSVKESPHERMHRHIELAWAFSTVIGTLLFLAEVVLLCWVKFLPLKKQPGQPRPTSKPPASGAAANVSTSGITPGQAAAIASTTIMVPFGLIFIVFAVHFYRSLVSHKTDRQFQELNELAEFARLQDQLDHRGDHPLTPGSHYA
Protocol: Manual patch clamp experiments are conducted in the tight-seal whole-cell configuration at room temperature (21-25° C.). Patch pipettes are fashioned from borosilicate glass capillary tubes and have resistances between 2-4 MO after filling with standard intracellular solution. High resolution current recordings are acquired with a computer-based patch clamp amplifier system (EPC-10, HEKA, Lambrecht, Germany). All voltages are corrected for a liquid junction potential of 10 mV between external and internal solutions with glutamate as the intracellular anion. Currents are filtered at 2.9 kHz and digitized at 10 μs intervals. Capacitive currents and series resistance are determined and corrected before each voltage ramp using the automatic capacitance compensation of the EPC-10.
Automated patch clamp experiments are conducted with the QPatch 16 (Sophion Bioscience, Ballerup, Denmark) at room temperature (21-25° C.). Immediately following the establishment of giga-seal whole-cell configuration, the cells membrane potential is clamped at 0 mV. Voltage ramps of 50 ms duration spanning the voltage range of −100 to +100 mV are then stimulated at a rate of 0.33 Hz. Currents are filtered at 2.9 kHz and digitized at 200 μs intervals. Capacitive currents and series resistance are determined and corrected before each voltage ramp using the automatic capacitance compensation.
In general, a whole cell patch clamp method is used to examine the effects of a compound of the invention on a channel(s) that mediates ICRAC. In such experiments, a baseline ICRAC measurement is established within the first 70 voltage ramps, or 140 seconds, for a patched cell. Then the cells are perfused with the compound to be tested and the effect of the compound on ICRAC is measured for at least an additional 440 to 500 seconds. A compound that modulates ICRAC (e.g., inhibits) is a compound that is useful in the invention for modulating CRAC ion channel activity.
ICRAC currents are measured using 50 msec voltage ramps between −100 mV to +100 mV. The voltage ramps are stimulated every 2 seconds for the first 70 sweeps, then every 5 seconds for the remainder of the experiment. The membrane potential is held at 0 mV between the test ramps. In a typical experiment, the peak inward currents will develop within 50-100 seconds. Once the ICRAC current is stabilized, the cells are perfused with a test compound in the extracellular solution for at least an additional 500 seconds.
Off-line analysis with the Heka PatchMaster software is used to separate the ICRAC membrane current from the cells basal background currents. In a typical recording, InsP3 stimulated ICRAC currents begin to develop in 6 to 12 seconds after whole cell is established. Therefore, the first 1-4 voltage ramps represent the basal membrane currents in the absence of ICRAC and the average value is subtracted from all subsequent traces. The current value at −80 mV for each ramp trace is then measured and plotted against time. The resulting current versus time data is exported into a Microsoft Excel spreadsheet. The % ICRAC inhibition in each cell is calculated by comparing the amount of current just prior to the compound perfusion to the amount of current after the cells has been perfused with the compound for 440-500 seconds. The IC50 value and Hill coefficient for each compound is estimated by fitting all the individual data points to a single-site Hill equation.
TREx™-CHO cells were transfected with human Stim1 (recombinant DNA in pcDNA4/TO/myc-His™ A with a myc epitope tag in the N-terminal) and either CracM1, CracM2 or CracM3 (recombinant DNA in pcDNA 3.1 with a HA epitope tag in the N-terminal). Stably expressing cells were selected by growing the transfected cells in antibiotics for two to three weeks. Individual cell clones were isolated via serial dilution. […]

Row | IC50 (IL-2) | inhibition at 0.5 µM (CRACM1/STIM1) | ICRAC current inhibition CRACM1/STIM1-CHOK1 % Inhibition at 500 nM (CRACM1/STIM1) | SMILES
1 | < 50 nM | 70 to 100% | – | Cc1cc(C(=O)c2ccccc2)sc1-c1ccc(NC(=O)c2c(F)cccc2F)cc1 [A]
2 | < 50 nM | 50 to 70% | – | Cc1cc(C(=O)c2cccnc2)sc1-c1ccc(NC(=O)c2c(F)cccc2F)nc1 [B]
3 | < 50 nM | < 50% | – | CC(C)c1sc(-c2cccnc2)nc1-c1ccc(NC(=O)c2c(F)cccc2F)nc1 [C]
4 | < 50 nM | 50 to 70% | – | Cc1sc(-c2ccccn2)nc1-c1ccc(NC(=O)c2c(F)cccc2F)nc1 [Compound 1, 2,6-Difluoro-N-(5-(5-methyl-2-(pyridin-2-yl)thiazol-4-yl)pyridin-2-yl)benzamide]
5 | < 50 nM | 70 to 100% | – | Cc1sc(-c2ccccn2)nc1-c1ccc(NC(=O)c2c(F)cccc2F)cc1 [Compound 2, 2,6-Difluoro-N-(4-(5-methyl-2-(pyridin-2-yl)thiazol-4-yl)phenyl)benzamide]
6 | < 50 nM | 70 to 100% | – | Cc1sc(-c2cccnc2)nc1-c1ccc(NC(=O)c2c(F)cccc2F)nc1 [Compound 3, 2,6-Difluoro-N-(5-(5-methyl-2-(pyridin-3-yl)thiazol-4-yl)pyridin-2-yl)benzamide]
7 | < 50 nM | < 50% | – | Cc1sc(-c2cnn(C)c2)nc1-c1ccc(NC(=O)c2c(F)cccc2F)nc1 [Compound 4, 2,6-Difluoro-N-(5-(5-methyl-2-(1-methyl-1H-pyrazol-4-yl)thiazol-4-yl)pyridin-2-yl)benzamide]
8 | < 50 nM | 70 to 100% | – | Cc1cc(C(=O)c2cccnc2)sc1-c1ccc(NC(=O)c2c(F)cccc2F)cc1 [Compound 6, 2,6-difluoro-N-(4-(3-methyl-5-nicotinoylthiophen-2-yl)phenyl)benzamide]
9 | < 50 nM | 70 to 100% | – | Cc1cc(Cc2cccnc2)sc1-c1ccc(NC(=O)c2c(F)cccc2F)cc1 [Compound 7, 2,6-difluoro-N-(4-(3-methyl-5-(pyridin-3-ylmethyl)thiophen-2-yl)phenyl)benzamide]
10 | < 50 nM | 70 to 100% | – | Cc1cc(CCc2cccnc2)sc1-c1ccc(NC(=O)c2c(F)cccc2F)cc1 [Compound 8, 2,6-difluoro-N-(4-(3-methyl-5-(2-(pyridin-3-yl)ethyl)thiophen-2-yl)phenyl)benzamide]
11 | < 50 nM | 50 to 70% | – | C=C(C)c1sc(-c2cccnc2)cc1-c1ccc(NC(=O)c2c(F)cccc2F)nc1 [Compound 10, 2,6-difluoro-N-(5-(2-(prop-1-en-2-yl)-5-(pyridin-3-yl)thiophen-3-yl)pyridin-2-yl)benzamide]
12 | < 50 nM | < 50% | – | CC(C)c1sc(-c2cccnc2)cc1-c1ccc(NC(=O)c2c(F)cccc2F)nc1 [Compound 11, 2,6-difluoro-N-(5-(2-isopropyl-5-(pyridin-3-yl)thiophen-3-yl)pyridin-2-yl)-benzamide]
13 | < 50 nM | < 50% | – | C=C(C)c1sc(-c2cccnc2)cc1-c1ccc(NC(=O)c2c(F)cccc2F)cc1 [Compound 14, 2,6-difluoro-N-(4-(2-(prop-1-en-2-yl)-5-(pyridin-3-yl)thiophen-3-yl)phenyl)benzamide]
14 | < 50 nM | 50 to 70% | – | CC(C)c1sc(-c2cccnc2)cc1-c1ccc(NC(=O)c2c(F)cccc2F)cc1 [Compound 15, 2,6-difluoro-N-(4-(2-isopropyl-5-(pyridin-3-yl)thiophen-3-yl)phenyl)benzamide]
15 | < 50 nM | 50 to 70% | – | Cc1sc(-c2cccnc2)nc1-c1ccc(NC(=O)c2c(F)cccc2F)cc1 [F]
16 | < 50 nM | 70 to 100% | – | Cc1sc(-c2cnn(C)c2)nc1-c1ccc(NC(=O)c2c(F)cccc2F)cc1 [H]
17 | < 50 nM | – | High | Cc1sc(C(=O)c2cccnc2)cc1-c1ccc(NC(=O)c2c(F)cccc2F)cc1 [O]
18 | < 50 nM | – | – | Cc1sc(C#Cc2cccnc2)cc1-c1ccc(NC(=O)c2c(F)cccc2F)cc1 [Q]
19 | < 50 nM | – | – | Cc1sc(CCc2cccnc2)cc1-c1ccc(NC(=O)c2c(F)cccc2F)cc1 [R]
20 | < 50 nM | – | – | Cc1sc(-c2ncco2)cc1-c1cnc(NC(=O)c2c(F)cccc2F)cn1 [S]
